From publication PMC12914960, “Repurposing a detrimental antibody epitope as targeted therapeutics for sepsis and rheumatoid arthritis” (Military Medical Research, 2026)
Where a SMILES comes first, the peptide text is derived from it.

How the values were obtained:
[1] = test system: CAIA in BALB/c mice; assay: Arthritis severity score, collagen antibody-induced arthritis (CAIA); assay type: in vivo, mouse
Procedure: The CAIA model was established in BALB/c mice (8–10 weeks old) as described previously. On Day 0, the mice received an i.p. injection of 2 mg of anti-collagen II mAb cocktail (α-CII, Chondrex, Inc., Redmond, WA, USA). On Day 3, the mice received an i.p. injection of 30 µg of LPS [Escherichia coli (E. coli) O111:B4; Sigma-Aldrich, St. Louis, MO, USA] to activate inflammation and synchronize arthritis onset. The mice were randomized to the control vehicle (n = 5 or n = 7–10) or experimental groups (n = 5 or n = 7–10). Therapeutic agents [P2-1 peptide (1.0 or 2.0 mg/kg) or pCTS-L-neutralizing mAb2 (1.0, 2.0, or 4.0 mg/kg)] were administered i.p. daily, either prophylactically from–Day 2 or therapeutically from Day 6 post-α-CII challenge. Arthritis severity was scored daily via a clinical scoring system [0–4 per paw: 0 = normal; 1 = mild redness and swelling in a single joint type (ankle, wrist, or individual digit); 2 = moderate redness and swelling affecting two joint types; 3 = severe redness and swelling across all 3 joint types; 4 = maximal redness and swelling of the entire paw that obscured the joint definition].
On Day 0, the mice recei ved an i.p. injection of 2 mg of anti-collagen II m Ab cocktail (α-CII, Chondrex, Inc., Redmond, WA). […]

[2] = test system: human PBMCs; assay: HMGB1-induced cytokine/chemokine secretion by PBMCs, cytokine antibody arrays; assay type: cell-based; details: P2-1 5.0 or 10.0 µg/ml, 16 h
Procedure: Human blood was purchased from the New York Blood Center (Long Island City, NY, USA), and PBMCs were isolated via density gradient centrifugation through Ficoll (Ficoll-Paque PLUS) as previously described. PBMCs were cultured in RPMI-1640 supplemented with 10% human serum, 2 mmol/L L-glutamine, 100 U/ml penicillin, and 100 µg/ml streptomycin (all from Invitrogen, Carlsbad, CA, USA). For experiments, PBMCs were stimulated with recombinant HMGB1 (0.5 or 2.0 µg/ml) for 16 h, either alone or in combination with P2-1 at 5.0 or 10.0 µg/ml. Cell-free supernatants were collected for analysis of cytokine/chemokine levels via cytokine antibody arrays, or pCTS-L levels via Western blotting analysis as previously described.
The levels of cytokines and chemokines in mouse serum and joint tissue lysates, or human PBMC culture supernatants, were determined via murine or human cytokine antibody arrays (e.g., Cat. #AAM-CYM-3–8 or Cat. #AAH-CYT-3–8, RayBiotech Inc., Norcross, GA, USA) as previously described. For the sepsis model, blood samples were collected from the mice (n = 4) at 24 h post-CLP. […] Arrays were performed according to the manufacturer’s protocol, followed by chemiluminescent detection and densitometric quantification as previously described. […]

CCCC[C@H](NC(=O)[C@H](Cc1c[nH]cn1)NC(=O)[C@@H](NC(=O)[C@H](CCCCN)NC(=O)[C@@H](N)[C@@H](C)O)C(C)C)C(=O)N[C@@H](CCCCN)C(=O)N[C@@H](CO)C(=O)N[C@@H](Cc1ccccc1)C(=O)N[C@@H](CC(C)C)C(=O)N[C@@H](C)C(=O)N[C@@H](Cc1ccccc1)C(=O)N[C@@H](CCC(N)=O)C(=O)N[C@H](C(=O)N[C@@H](CCCCN)C(=O)N[C@H](C(=O)O)[C@@H](C)O)[C@@H](C)O [P2-1] (HELM PEPTIDE1{T.K.V.H.[Nle].K.S.F.L.A.F.Q.T.K.T}$$$$V2.0; N-terminus and C-terminus assumed)
arthritis severity, in words ([1]; P2-1 1.0 or 2.0 mg/kg i.p. daily from Day 6 (therapeutic)): dose-dependently and significantly attenuated CAIA-induced arthritis severity
arthritis severity, in words ([1]; P2-1 prophylactic, from Day -2, significant by Day 7): significantly reduced arthritis severity
HMGB1-induced cytokine/chemokine secretion, in words [2]: did not broadly inhibit the secretion of these HMGB1-induced cytokines and chemokines
